Earlier results in patent publication US20010031747A1, “Progestin therapy for maintaining amenorrhea” (COLUMBIA LABORATORIES (BERMUDA) LIMITED, priority 1997, published 2001).
Like-named read-outs stand apart in the source and are kept apart here.

Tests used:
endometrium = settings: topical application to the breast
[1] = subdermal, six 100 mg pellets
[2] = sublingual
[3] = nasal
[4] = intramuscular; 100 mg doses

In the case of `CC(=O)[C@H]1CC[C@H]2[C@@H]3CCC4=CC(=O)CC[C@]4(C)[C@H]3CC[C@]12C` [progesterone], the “Increase over baseline serum levels” value (vaginal suspension 50 mg/ml (carboxymethyl cellulose, methyl cellulose), after 15 minutes) is listed as 10 fold, the “Peak increase over baseline levels” value (vaginal suspension 50 mg/ml, at peak) is listed as “thirty- to forty” and the “Serum level after decline” value (vaginal suspension 50 mg/ml, declining over the next ten hours) is listed as 3.68 ng/mL. For the same compound, the Peak serum level (vaginal suspension 50 mg/ml, maintained over the next seven hours) was 12.25 ng/mL, the Endometrial effects (endometrium) was “no significant endometrial effects” and the “Mean peak progesterone level” value ([1]; six months after implantation) was 1.9 ng/mL. For the same compound, the Peak progesterone level ([1]; within the first week after insertion) was 4.4 ng/mL, the “Time to return to basal levels” value [2] was “twenty-four” and the Mean maximum concentration ([3]; 20 mg dose) was 2.1 ng/mL. For the same compound, the “Time of mean maximum concentration” value ([3]; 20 mg dose) was “approximately 30 minutes”, the Mean maximum concentration ([3]; 30 mg dose) was 4.1 ng/mL and the “Time of mean maximum concentration” value ([3]; 30 mg dose) was about 240 min. For the same compound, the “Time to achieve serum concentrations” value [4] was “two to eight”.
